How the values were obtained:
[1] = system: other rCYP450s; experiment: Reaction phenotyping, other rCYP450s of the panel (not given); type: in vitro ADME, human
Method: For FFA and nFFA reaction phenotyping experiments, LC‐MS/MS experiments were performed using an API 4000 QTRAP or QTRAP 5500 mass spectrometer (SCIEX) with positive electrospray ionization. Chromatography was performed using an Atlantis dC18 analytical column (100 × 2.1 mm, 5 µm; Waters Corporation). Mobile phases were 0.2% v/v formic acid in water and 0.2% v/v formic acid in methanol. FFA and nFFA were eluted at a flow rate of 0.5 mL/min with a linear gradient of 40%−95% methanol from 0.20−2.1 min. The mass transitions monitored were 232.0>109.0 for FFA, 204.0>159.0 for nFFA, 348.0>330.0 for 1’‐hydroxymidazolam‐d4 internal standard (FFA reaction phenotyping), and 262.0>244.0 for hydroxybupropion‐d6 internal standard (nFFA reaction phenotyping). Analyst Instrument Control and Data Processing software (v. 1.6.1) was used for collecting and integrating data (SCIEX). Calibration curves ranging from 1.25 µM−0.01 µM were used to quantify nFFA. Relative quantitation was used to approximate the amount of FFA test material used.
Methods used to evaluate the role of CYP450s in the metabolism of FFA have been described.[22], [23], [24] To determine whether FFA and nFFA were substrates for specific CYP450s, either FFA (1 and 10 μM) or nFFA (0.1 and 1 μM) was incubated via a Tecan Liquid Handling System (Tecan Life Sciences, Männedorf, Switzerland) in duplicate with 25 pmol of rCYP1A2, rCYP2B6, rCYP2C8, rCYP2C9, rCYP2C19, rCYP2D6, or rCYP3A4, and incubation at 37°C. The 200‐μL incubation mixtures contained potassium phosphate buffer (50 mM, pH 7.4), MgCl2 (3 mM), and EDTA (1 mM, pH 7.4), and an NADPH‐generating system. Incubations of FFA with control bactosomes and membranes containing human NADPH‐CYP450 oxidoreductase, but not human CYP450 (reductase control), served as negative controls. FFA or nFFA was added to the incubation mixtures in water (1% v/v). […] Supernatant fractions were analyzed by LC‐MS/MS.

[2] = clobazam, and valproate, healthy subjects, cited from earlier work
[3] = molecular target: P‐gp (Homo sapiens, UniProt P08183); experiment: Transporter substrate determination, efflux ratio across Caco-2 cells (P-gp)
P‐gp, sequence (P08183 whole entry): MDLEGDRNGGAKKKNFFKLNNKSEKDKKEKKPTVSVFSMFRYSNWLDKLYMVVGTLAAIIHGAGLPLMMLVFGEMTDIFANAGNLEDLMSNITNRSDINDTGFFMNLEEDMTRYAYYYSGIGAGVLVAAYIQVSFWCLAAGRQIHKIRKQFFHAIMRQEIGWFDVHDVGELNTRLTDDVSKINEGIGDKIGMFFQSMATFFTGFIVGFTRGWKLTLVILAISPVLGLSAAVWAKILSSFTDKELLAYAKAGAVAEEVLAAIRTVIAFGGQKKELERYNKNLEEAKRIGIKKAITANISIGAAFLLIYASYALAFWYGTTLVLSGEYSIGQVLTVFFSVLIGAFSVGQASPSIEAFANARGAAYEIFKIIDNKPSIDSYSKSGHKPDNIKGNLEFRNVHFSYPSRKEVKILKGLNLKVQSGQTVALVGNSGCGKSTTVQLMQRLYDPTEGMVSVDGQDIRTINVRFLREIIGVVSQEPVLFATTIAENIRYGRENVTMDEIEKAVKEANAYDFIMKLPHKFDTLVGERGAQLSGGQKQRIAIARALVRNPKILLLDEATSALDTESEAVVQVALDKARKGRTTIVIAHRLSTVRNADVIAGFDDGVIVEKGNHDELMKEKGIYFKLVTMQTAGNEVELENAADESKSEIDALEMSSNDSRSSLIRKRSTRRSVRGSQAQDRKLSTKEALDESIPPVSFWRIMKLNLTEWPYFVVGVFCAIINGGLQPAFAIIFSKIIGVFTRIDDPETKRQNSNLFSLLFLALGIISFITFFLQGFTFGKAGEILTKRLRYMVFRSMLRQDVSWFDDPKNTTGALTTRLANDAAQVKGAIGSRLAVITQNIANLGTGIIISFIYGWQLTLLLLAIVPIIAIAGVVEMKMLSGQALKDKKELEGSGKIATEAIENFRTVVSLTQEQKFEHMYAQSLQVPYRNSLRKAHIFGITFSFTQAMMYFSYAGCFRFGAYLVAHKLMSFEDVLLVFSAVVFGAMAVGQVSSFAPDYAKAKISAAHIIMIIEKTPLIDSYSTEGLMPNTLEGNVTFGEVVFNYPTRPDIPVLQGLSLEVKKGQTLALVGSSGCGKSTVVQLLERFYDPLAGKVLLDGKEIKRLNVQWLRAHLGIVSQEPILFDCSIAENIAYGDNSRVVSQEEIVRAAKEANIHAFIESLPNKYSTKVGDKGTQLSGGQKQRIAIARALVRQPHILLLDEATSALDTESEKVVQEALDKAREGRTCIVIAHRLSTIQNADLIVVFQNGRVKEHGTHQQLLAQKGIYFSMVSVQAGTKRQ

Compound: CCNC(C)Cc1cccc(C(F)(F)F)c1 (racemic) [FFA, (RS)‐ethyl (α‐methyl‐3‐trifluoromethylphenethyl)amine]
- FFA loss ([1]; 1 μM FFA, rCYP450s other than rCYP2D6, rCYP2C19, rCYP1A2): < 10%
- substrate loss ([1]; 10 μM FFA, rCYP450s other than rCYP2D6, rCYP2C19, rCYP1A2, rCYP2B6): < 15%
- effect on Cmax, AUC0‐t, and AUC0‐∞ of FFA ([2]; co‐administered with stiripentol): increasing
- substrate of the transporter [3]: not substrates

Compound: CC(N)Cc1cccc(C(F)(F)F)c1.Cl (stereo not shown) [nFFA, 1‐(3‐(trifluoromethyl)phenyl)propan‐2‐amine hydrochloride]
- contribution to nFFA metabolism ([1]; nFFA 0.1 μM and 1 μM, enzymes other than rCYP1A2, rCYP2B6, rCYP2C19, rCYP2D6): smaller contributions
- effect on Cmax and AUC0‐t of nFFA ([2]; FFA co‐administered with stiripentol): reduced
- substrate of the transporter [3]: not substrates
